Measured values as given in patent US9668473B2, “Process for obtaining biopolymeric nanoparticles containing Azadirachta indica A. Juss. (neem.) oil and extracts, biopolymeric nanoparticles, and powder microparticles” (priority 2013, dated 2017).
Where two headings read alike, the source gives them in different places.

What was measured:
[1] = type: physicochemical
Experimental: Reproducibility, Resistance, Recovery, and Storage Stability
Azadirachtin solutions stores at 4° C. were considered stable.

[2] = cited from earlier work
[3] = Azadirachtin solubility and dispersion capability in aqueous phase; type: physicochemical
Source text: This value represents an azadirachtin dispersion capability 13 times greater than its solubility. That is, it is possible to prepare a new formulation for applying Neem extracts and oil with high azadirachtin contents, whereas the surfactant content is kept low (Tween®80=0.5% m/v). It should be clear for those skilled in the art that this value represents a non-limiting example; greater dispersion capabilities are fairly possible according to the extract content used.

For C/C=C(\C)C(=O)O[C@H]1C[C@@H](OC(C)=O)[C@@]2(C(=O)OC)CO[C@H]3[C@@H](O)[C@@](C)([C@]45O[C@@]4(C)[C@H]4C[C@@H]5O[C@@H]5OC=C[C@@]54O)[C@H]4[C@]1(CO[C@]4(O)C(=O)OC)[C@@H]32 [Azadirachtin, azadirachtin], the storage stability [1] is listed as “stable”, the azadirachtin activity ([2]; after 4 hours of sunlight exposure) is listed as roughly 60% and the azadirachtin activity ([2]; after 15 hours of sunlight exposure) is listed as roughly 50%. The Azadirachtin solubility [3] was 26.0 mg 100 mL^−1.
